Experiment [1] has as its system L. brevis WF-1B. Put plainly: Antibiotic susceptibility assay, broth microdilution. The class given is cell-based, Levilactobacillus brevis. Particulars: for MIC: antibiotic against L. brevis WF-1B; for susceptibility of L. brevis WF-1B to the antibiotic: MIC compared with EFSA cut-off value. On the procedure: Broth microdilution was used to determine the susceptibility of the L. brevis WF-1B isolate against eight commonly used clinical antibiotics. Broth micro-dilution was performed following the methods according to: International Organization for Standardization, Milk and milk products—Determination of the minimal inhibitory concentration (MIC) of antibiotics applicable to bifidobacteria and non-enterrococcal lactic acid bacteria (LAB) (ISO 10932:2012). Antibiotic stock solutions were prepared following the methods according to: CLSI, Performance Standards for Antimicrobial Susceptibility Testing, 23rd edition, CLSI Standard M100, Wayne, Pa.: Clinical and Laboratory Standards Institute; 2013. The measured minimum inhibitory concentrations (MICs) and microbiological cut-off values from the antibiotic susceptibility assays for L. brevis WF-1B are shown below in Table 5.
In general terms: In broth dilution the organism is exposed to a series of concentrations in liquid medium.

The test system of experiment [2] is L. brevis WF-1B. The following applies: EFSA microbiological cut-off value; cited from earlier work.
Where [3] appears, read: Levilactobacillus brevis, WF1B, read-out: MIC.

≈ marks a conversion by molar mass, not a printed value. Where two headings read alike, the source gives them in different places.

Broadly, the MIC is the lowest concentration found to suppress growth.

With `CC1(C)S[C@@H]2[C@H](NC(=O)[C@H](N)c3ccccc3)C(=O)N2[C@H]1C(=O)O` [Ampicillin], the MIC in the experiment on L. brevis WF-1B [1] (setting [3]) was 8 µg/mL (≈ 22.9 µM). Besides, the “susceptibility of L. brevis WF-1B to the antibiotic” value (shortened to “susceptibility of L. brevis WF-1B”) in the experiment on L. brevis WF-1B [1] was “resistant”. Further, the Cut-off value with L. brevis WF-1B [2] is 2 µg/mL.
`O=C(N[C@H](CO)[C@H](O)c1ccc([N+](=O)[O-])cc1)C(Cl)Cl` [Chloramphenicol]: the minimal inhibitory concentration (MIC) in the experiment with L. brevis WF-1B [1] (setting [3]) amounted to 16 µg/mL (≈ 49.5 µM). Besides, the “susceptibility of L. brevis WF-1B” value with L. brevis WF-1B [1] is “resistant”. In addition, in the experiment on L. brevis WF-1B [2], the Cut-off value was 4 µg/mL.
With `CCC[C@@H]1C[C@@H](C(=O)N[C@@H]([C@H]2O[C@H](SC)[C@H](O)[C@@H](O)[C@H]2O)[C@H](C)Cl)N(C)C1` [Clindamycin], the MIC in the experiment with L. brevis WF-1B [1] (setting [3]) stood at 8 µg/mL (≈ 18.8 µM).
In the case of `CC[C@H]1OC(=O)[C@H](C)[C@@H](O[C@H]2C[C@@](C)(OC)[C@@H](O)[C@H](C)O2)[C@H](C)[C@@H](O[C@@H]2O[C@H](C)C[C@H](N(C)C)[C@H]2O)[C@](C)(O)C[C@@H](C)C(=O)[C@H](C)[C@@H](O)[C@]1(C)O` [Erythromycin], in the experiment on L. brevis WF-1B [1] (setting [3]), the MIC is 0.83 µg/mL (≈ 1.13 µM). For the same compound, in the experiment with L. brevis WF-1B [1], the “susceptibility of L. brevis WF-1B” value is given as “sensitive”. Besides, the Cut-off value with L. brevis WF-1B [2] is 1 µg/mL.
Turning to `NC[C@H]1O[C@H](O[C@H]2[C@H](O)[C@@H](O[C@H]3O[C@H](CO)[C@@H](O)[C@H](N)[C@H]3O)[C@H](N)C[C@@H]2N)[C@H](O)[C@@H](O)[C@@H]1O` [Kanamycin], the MIC in the experiment with L. brevis WF-1B [1] (setting [3]) is 85 µg/mL (≈ 175 µM).
Take `[H]/N=C(/N)N[C@H]1[C@H](O)[C@@H](O)[C@H](O[C@@H]2O[C@@H](C)[C@](O)(C=O)[C@H]2O[C@@H]2O[C@@H](CO)[C@H](O)[C@@H](O)[C@@H]2NC)[C@@H](N/C(N)=N\[H])[C@@H]1O` [Streptomycin]: in the experiment on L. brevis WF-1B [1] (setting [3]), the MIC turned out to be 8 µg/mL (≈ 13.8 µM). Further, the “susceptibility of L. brevis WF-1B” value in the experiment on L. brevis WF-1B [1] is “sensitive”. The Cut-off value in the experiment with L. brevis WF-1B [2] is 64 µg/mL.
`CN(C)[C@@H]1C(O)=C(C(N)=O)C(=O)[C@@]2(O)C(O)=C3C(=O)c4c(O)cccc4[C@@](C)(O)[C@H]3C[C@@H]12` [Tetracycline]: in the experiment with L. brevis WF-1B [1] (setting [3]), the MIC was determined as 64 µg/mL (≈ 144 µM).
Gentamicin: in the experiment on L. brevis WF-1B [1], the “susceptibility of L. brevis WF-1B” value was “sensitive” and the MIC stood at 3 µg/mL. Moreover, the Cut-off value with L. brevis WF-1B [2] is 16 µg/mL.
